Measurements taken from patent US4073918A, “Phenoxyalkylcarboxylic acid amides of substituted thiazolidinecarboxylic acids and their utilization in medicaments” (Ludwig Merckle KG, priority 1974, dated 1978).

Experiments:
normal lipemic CFY-rat = assay: Normolipemic test (serum cholesterol and triglycerides); format: in vivo; conditions: 14 days; for Serum Cholesterol / Serum Triglycerides: 24 h after last administration; for Serum Triglycerides, Lowering % / Serum Cholesterol, Lowering %: vs control
Procedure: (§1) In contrast therewith, the inventive compounds having the general formula (I) show based on the normal lipemic as well as the hypercholesteremic rat models, a distinct anti-lipemic and, in particular anti-cholesteremic effect. […] This activity loss of clofibrate on the hyperlipemic demands is also found a number of times in the literature. The antilipemic activity of the inventive compounds, as well as that of clofibrate as the reference substance, was determined on a normal lipemic CFY-rat during an examination time period of 14 days. During this time, the animals received a normal laboratory diet. (Spratt's No. 1).
(§2) After a 4-day acclimatization period the animals orally received the test compound as a suspension in 1% tragacanth-solution, or the vehicle alone (control group). The control-group consisted of 20 animals, while the test groups contained 10 animals. 24 hours after the last administration, blood samples were taken for determining the serum triglycerides and serum cholesterol level.

hypercholesteremic rat = assay: Hypercholesteremic test (serum cholesterol and triglycerides); format: in vivo; conditions: for Serum Cholesterol / Serum Triglycerides: hypercholesteremic rat (2% cholesterol, 1% cholic acid diet); for Serum Cholesterol, Lowering % / Serum Triglycerides, Lowering %: hypercholesteremic rat, vs control
Procedure: as §1, §2
The hypercholesteremic test was carried out on the same animals and under the same examining conditions, as was carried out in the normal lipemic test. The animals received a normal laboratory diet (Spratt's No. 2), having added thereto 2% cholesterol and 1% cholic acid.

[1] = Acute oral toxicity (LD50, Litchfield and Wilcoxon); format: in vivo; conditions: in vivo, rat, suspension in 0.5% aqueous Tween 80, observation 14 days
Procedure: (§3) The acute oral toxicity of the inventive compounds of Examples 18 and 23 was tested on, respectively, five male and female laboratory rats each having a weight of 200 ± 20g. The compounds tested were prepared as suspension in 0.5 %-aqueous Tween 80-solution. The observation time period was 14 days. The determination of the LD50 -values was carried out pursuant to the methods of Litchfield and Wilcoxon.

[2] = Pharmacological screening for 51 pharmacological parameters; format: in vivo
mouse = assay: Pharmacological screening, abdominal tone in the mouse; format: in vivo; conditions: 100 mg/kg intraperitoneal
laboratory rats [3] = conditions: Literature reference; 20160 min; cited from earlier work
laboratory rats [4] = assay: Acute oral toxicity (LD50, Litchfield and Wilcoxon); format: in vivo; conditions: rat, 14 days, Litchfield and Wilcoxon
Procedure: as §3

[5] = test system: galactosamine-hepatitis-model; conditions: Arzneimittel-Forschung 23, 56, 1973, cited from earlier work
[6] = in vivo; cited from earlier work

| Structure (SMILES) | Serum Cholesterol (normal lipemic CFY-rat; 100 mg/kg oral) | Serum Triglycerides (normal lipemic CFY-rat; 100 mg/kg oral) | Serum Triglycerides, Lowering % (normal lipemic CFY-rat; 100 mg/kg oral) | Serum Cholesterol (normal lipemic CFY-rat; 300 mg/kg oral) | Serum Triglycerides (normal lipemic CFY-rat; 300 mg/kg oral) | Serum Cholesterol, Lowering % (normal lipemic CFY-rat; 300 mg/kg oral) | Serum Triglycerides, Lowering % (normal lipemic CFY-rat; 300 mg/kg oral) | Serum Cholesterol (hypercholesteremic rat; 100 mg/kg oral) | Serum Triglycerides (hypercholesteremic rat; 100 mg/kg oral) | Serum Cholesterol (hypercholesteremic rat; 300 mg/kg oral) | Serum Triglycerides (hypercholesteremic rat; 300 mg/kg oral) | Serum Cholesterol, Lowering % (hypercholesteremic rat; 100 mg/kg oral) | Serum Cholesterol, Lowering % (hypercholesteremic rat; 300 mg/kg oral) | side effects in pharmacological screening [2] | also measured |
| --- | --- | --- | --- | --- | --- | --- | --- | --- | --- | --- | --- | --- | --- | --- | --- |
| CC(C)(Oc1ccc(Cl)cc1)C(=O)N1C(C(=O)O)C(C)(C)SC1(C)C (centres unmarked) [Example 19] | 93.1 mg % | 75.2 mg % | 20.3% | 82.0 mg % | 72.7 mg % | 4.9% | 23.0% | 549.1 mg % | 65.9 mg % | 595.6 mg % | 66.0 mg % | 7.1% |  |  |  |
| CC(Oc1ccc(Cl)cc1)C(=O)N1C(C(=O)O)C(C)(C)SC1(C)C (centres unmarked) [Example 18, 2,2,5,5-tetramethyl-3-2-(p-chlorophenoxy)propionyl!-thiazolidine-4-carboxylic acid] | 95.8 mg % | 68.7 mg % | 27.2% | 95.3 mg % | 82.5 mg % |  | 12.6% | 412.9 mg % | 71.4 mg % | 470.3 mg % | 72.4 mg % | 30.2% | 20.5% | no special side effects were seen | LD50 at 336 h [1]: > 5000 mg/kg; abdominal tone (mouse): a small reduction of the abdominal tone was observed |
| CC(C)(Oc1ccc(Cl)cc1)C(=O)NCC1NC(C(=O)O)C(C)(C)S1 (centres unmarked) [Example 17] | 81.8 mg % | 77.3 mg % | 11.2% | 81.5 mg % | 91.2 mg % | 13.1% |  | 353.8 mg % | 85.0 mg % | 296.1 mg % | 96.4 mg % |  | 7.2% | no special side effects were seen | Serum Cholesterol, Lowering % (normal lipemic CFY-rat; 100 mg/kg oral): 12.8%; Serum Triglycerides, Lowering % (hypercholesteremic rat; 100 mg/kg oral): 1.2% |
| CC1(C)SC(C)(C)N(C(=O)COc2ccc(Cl)cc2)C1C(=O)O (centres unmarked) [Example 20, 2,2,5,5-tetramethyl-3-(p-chlorophenoxyacetyl)-thiazolidine-4-carboxylic acid] | 87.8 mg % | 67.6 mg % | 28.4% | 73.0 mg % | 66.0 mg % | 15.3% | 30.1% | 503.9 mg % | 88.1 mg % | 479.6 mg % | 92.2 mg % | 14.8% | 18.9% |  |  |
| CCOC(=O)C(C)(C)Oc1ccc(Cl)cc1 [Clofibrate, 2-(p-chlorophenoxy)-2-methylpropionic acid ethyl ester, reference compound] |  |  |  | 56.1 mg % | 66.5 mg % | 27.0% | 46.3% |  |  | 347.9 mg % | 75.6 mg % |  | 3.0% |  | activity on the hypercholesteremic models (in words) (hypercholesteremic rat; hypercholesteremic models): shows no more activity; Serum Triglycerides, Lowering % (hypercholesteremic rat; 300 mg/kg oral): 12.5%; LD50 (laboratory rats [3]): ~1200 mg/kg |
| CC(C)(Oc1ccc(Cl)cc1)C(=O)NCC1SC(C)(C)C(C(=O)O)N1C(=O)COc1ccc(Cl)cc1 (centres unmarked) [Example 21, 2-2-(p-chlorophenoxy)-2-methyl-propionylamidomethyl!-5,5-dimethyl-3-(p-chlorophenoxyacetyl)-thilazolidine-4-carboxylic acid] | 89.4 mg % | 59.1 mg % | 11.4% | 90.8 mg % | 72.4 mg % | 5.9% |  | 501.2 mg % | 51.0 mg % | 465.1 mg % | 41.3 mg % |  |  | no special side effects were seen | Serum Cholesterol, Lowering % (normal lipemic CFY-rat; 100 mg/kg oral): 7.3%; Serum Triglycerides, Lowering % (hypercholesteremic rat; 100 mg/kg oral): 5.9%; Serum Triglycerides, Lowering % (hypercholesteremic rat; 300 mg/kg oral): 23.9% |
| CC1(C)SC2(CCCCC2)N(C(=O)COc2ccc(Cl)cc2)C1C(=O)O (centres unmarked) [Example 23] |  |  |  |  |  |  |  |  |  |  |  |  |  |  | LD50 at 336 h [1]: 4350 mg/kg; Effective limits (of LD50) (laboratory rats [4]): 3680 to 5130 mg/kg |
| CC(C)(S)[C@@H](N)C(=O)O [D-penicillamine] |  |  |  |  |  |  |  |  |  |  |  |  |  |  | influence on lipid material exchange (in words) [5]: satisfactory influence on lipid material exchange; liver protective effect; release of SH-groups, stimulation of nucleic acids and protein synthesis (in words) ([5]; galactosamine-hepatitis-model): These properties are also shown by D-penicillamine; known side effects [6]: allergic reactions, leukopenia or gastrointestinal disturbances |
